Assay results from patent US12447153B2, “HER2 mutation inhibitors” (Array BioPharma Inc., priority 2021, dated 2025).

What was measured:
[1] = target: ErbB2 with Exon 20 YVMA insertion (HER2-YVMA) (Homo sapiens (Human), UniProt P04626, INS775YVMA); experiment: Cellular Phosphorylation Assay, Assay 4 (constitutive ErbB2 phosphorylation, NIH 3T3 cells); assay type: cell-based
MDR1 (P-gp) = MDR1 (P-gp) (Homo sapiens (Human), UniProt P08183); experiment: in vitro; conditions: pig, LLC-PK1
ErbB2 WT = ErbB2 WT (Homo sapiens (Human), UniProt P04626); experiment: ErbB Enzyme Assay (HTRF KinEASE-TK), Assay 2; assay type: biochemical
EGFR = EGFR (Homo sapiens (Human), UniProt P00533); experiment: ErbB Enzyme Assay (HTRF KinEASE-TK), Assay 3; assay type: biochemical
EGFR wild type (EGFR WT) = EGFR wild type (EGFR WT) (Homo sapiens (Human), UniProt P00533); experiment: Cellular Phosphorylation Assay, Assay 5 (EGF-stimulated EGFR phosphorylation, NIH 3T3 cells); assay type: cell-based
BCRP = BCRP (Homo sapiens (Human), UniProt Q9UNQ0); experiment: BCRP MDCKII efflux assay (Assay 7); assay type: in vitro ADME; conditions: dog; efflux ratio Papp(B-A)/Papp(A-B), BCRP MDCKII cells; read-out: Assay 7 Pe Ratio
Experimental: Assay conditions included with and without the BCRP-specific inhibitor, KO143, at a concentration of 0.3 μM to ascertain the contribution of BCRP to the efflux value of the test compound.
Final organic concentration in the assay was 1%.

[2] = EGF-stimulated EGFR WT phosphorylation
[3] = cellular ErbB2 YVMA phosphorylation
[4] = cellular EGFR WT phosphorylation, EGF-stimulated

Chain of ErbB2 WT (P04626 23-1255): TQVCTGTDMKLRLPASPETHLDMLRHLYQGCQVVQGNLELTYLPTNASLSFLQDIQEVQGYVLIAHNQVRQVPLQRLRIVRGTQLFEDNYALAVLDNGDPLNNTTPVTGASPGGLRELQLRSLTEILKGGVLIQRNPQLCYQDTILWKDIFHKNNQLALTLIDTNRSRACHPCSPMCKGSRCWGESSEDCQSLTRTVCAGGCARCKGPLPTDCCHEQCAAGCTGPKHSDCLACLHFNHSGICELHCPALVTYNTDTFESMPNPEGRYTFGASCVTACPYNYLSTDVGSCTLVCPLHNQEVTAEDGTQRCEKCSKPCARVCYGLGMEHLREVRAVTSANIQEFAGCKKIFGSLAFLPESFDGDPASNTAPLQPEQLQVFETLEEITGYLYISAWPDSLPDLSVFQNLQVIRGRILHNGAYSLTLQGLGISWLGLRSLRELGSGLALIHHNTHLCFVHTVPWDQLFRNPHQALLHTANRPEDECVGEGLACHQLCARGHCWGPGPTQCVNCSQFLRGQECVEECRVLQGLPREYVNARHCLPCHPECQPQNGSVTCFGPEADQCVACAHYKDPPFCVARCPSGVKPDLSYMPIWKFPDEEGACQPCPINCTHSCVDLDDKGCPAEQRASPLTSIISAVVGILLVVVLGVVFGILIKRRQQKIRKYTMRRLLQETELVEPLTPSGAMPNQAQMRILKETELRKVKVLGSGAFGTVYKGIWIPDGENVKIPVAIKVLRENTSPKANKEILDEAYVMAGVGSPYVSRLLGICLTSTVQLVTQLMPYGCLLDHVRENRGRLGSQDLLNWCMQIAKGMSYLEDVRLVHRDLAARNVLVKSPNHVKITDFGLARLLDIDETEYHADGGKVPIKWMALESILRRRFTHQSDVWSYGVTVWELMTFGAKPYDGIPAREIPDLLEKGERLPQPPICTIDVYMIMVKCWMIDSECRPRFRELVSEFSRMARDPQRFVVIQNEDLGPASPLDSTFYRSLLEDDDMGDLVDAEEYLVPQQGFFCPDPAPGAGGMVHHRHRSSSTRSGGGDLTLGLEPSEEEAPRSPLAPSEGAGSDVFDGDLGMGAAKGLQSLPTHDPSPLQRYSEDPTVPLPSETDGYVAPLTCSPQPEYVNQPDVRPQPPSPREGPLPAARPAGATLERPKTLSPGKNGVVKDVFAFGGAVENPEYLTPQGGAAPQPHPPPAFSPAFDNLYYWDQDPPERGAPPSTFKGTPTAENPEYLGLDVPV
Chain of BCRP (Q9UNQ0 whole entry): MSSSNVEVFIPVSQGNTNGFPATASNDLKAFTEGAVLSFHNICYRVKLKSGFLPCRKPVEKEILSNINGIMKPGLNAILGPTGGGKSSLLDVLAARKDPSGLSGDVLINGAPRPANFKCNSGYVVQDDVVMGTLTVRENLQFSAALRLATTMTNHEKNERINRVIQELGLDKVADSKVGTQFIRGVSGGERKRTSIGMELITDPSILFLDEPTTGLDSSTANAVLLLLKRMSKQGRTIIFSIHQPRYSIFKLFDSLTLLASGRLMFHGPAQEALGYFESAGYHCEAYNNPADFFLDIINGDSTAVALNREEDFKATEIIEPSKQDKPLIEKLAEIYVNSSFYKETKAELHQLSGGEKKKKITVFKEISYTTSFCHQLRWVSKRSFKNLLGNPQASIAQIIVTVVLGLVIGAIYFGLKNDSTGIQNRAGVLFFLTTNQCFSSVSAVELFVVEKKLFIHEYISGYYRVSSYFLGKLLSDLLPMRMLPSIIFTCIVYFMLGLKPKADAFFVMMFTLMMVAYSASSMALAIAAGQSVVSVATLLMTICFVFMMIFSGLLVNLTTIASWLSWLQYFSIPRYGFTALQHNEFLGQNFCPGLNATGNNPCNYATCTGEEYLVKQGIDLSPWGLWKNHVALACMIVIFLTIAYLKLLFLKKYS
Chain of ErbB2 with Exon 20 YVMA insertion (HER2-YVMA) (P04626 other isoform, or with tags, fused parts or gaps ins YVMA behind 775): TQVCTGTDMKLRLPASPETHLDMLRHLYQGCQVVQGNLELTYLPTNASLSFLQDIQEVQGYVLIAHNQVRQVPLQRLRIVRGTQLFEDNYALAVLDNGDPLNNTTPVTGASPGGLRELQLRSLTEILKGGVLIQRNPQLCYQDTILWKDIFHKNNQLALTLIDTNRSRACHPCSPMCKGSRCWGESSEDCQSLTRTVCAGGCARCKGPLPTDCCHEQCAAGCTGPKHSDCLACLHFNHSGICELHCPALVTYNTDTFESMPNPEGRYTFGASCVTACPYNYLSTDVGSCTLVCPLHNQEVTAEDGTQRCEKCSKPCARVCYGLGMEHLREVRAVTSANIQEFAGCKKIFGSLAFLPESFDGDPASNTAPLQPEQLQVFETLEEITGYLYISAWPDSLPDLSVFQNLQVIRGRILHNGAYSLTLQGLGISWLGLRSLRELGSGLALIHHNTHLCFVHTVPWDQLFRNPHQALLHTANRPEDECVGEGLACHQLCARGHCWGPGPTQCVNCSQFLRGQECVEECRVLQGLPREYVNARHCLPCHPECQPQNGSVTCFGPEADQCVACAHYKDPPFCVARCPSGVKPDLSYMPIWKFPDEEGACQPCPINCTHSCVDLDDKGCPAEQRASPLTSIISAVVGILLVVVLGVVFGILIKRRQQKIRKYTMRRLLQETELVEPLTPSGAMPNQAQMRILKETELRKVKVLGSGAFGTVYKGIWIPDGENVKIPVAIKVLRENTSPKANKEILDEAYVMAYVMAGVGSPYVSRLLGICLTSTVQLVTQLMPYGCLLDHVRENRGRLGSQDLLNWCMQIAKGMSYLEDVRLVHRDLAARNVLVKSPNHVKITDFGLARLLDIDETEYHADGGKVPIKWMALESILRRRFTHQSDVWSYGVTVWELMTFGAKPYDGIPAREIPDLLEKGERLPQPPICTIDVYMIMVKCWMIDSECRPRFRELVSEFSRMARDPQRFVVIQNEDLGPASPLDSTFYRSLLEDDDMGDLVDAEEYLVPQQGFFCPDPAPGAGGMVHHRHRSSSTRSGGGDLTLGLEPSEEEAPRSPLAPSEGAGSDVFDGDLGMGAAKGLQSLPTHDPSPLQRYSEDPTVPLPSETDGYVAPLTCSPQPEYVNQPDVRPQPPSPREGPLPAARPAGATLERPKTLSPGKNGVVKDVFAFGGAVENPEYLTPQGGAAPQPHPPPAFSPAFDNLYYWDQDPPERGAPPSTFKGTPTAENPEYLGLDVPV
Chain of EGFR (P00533 25-1210): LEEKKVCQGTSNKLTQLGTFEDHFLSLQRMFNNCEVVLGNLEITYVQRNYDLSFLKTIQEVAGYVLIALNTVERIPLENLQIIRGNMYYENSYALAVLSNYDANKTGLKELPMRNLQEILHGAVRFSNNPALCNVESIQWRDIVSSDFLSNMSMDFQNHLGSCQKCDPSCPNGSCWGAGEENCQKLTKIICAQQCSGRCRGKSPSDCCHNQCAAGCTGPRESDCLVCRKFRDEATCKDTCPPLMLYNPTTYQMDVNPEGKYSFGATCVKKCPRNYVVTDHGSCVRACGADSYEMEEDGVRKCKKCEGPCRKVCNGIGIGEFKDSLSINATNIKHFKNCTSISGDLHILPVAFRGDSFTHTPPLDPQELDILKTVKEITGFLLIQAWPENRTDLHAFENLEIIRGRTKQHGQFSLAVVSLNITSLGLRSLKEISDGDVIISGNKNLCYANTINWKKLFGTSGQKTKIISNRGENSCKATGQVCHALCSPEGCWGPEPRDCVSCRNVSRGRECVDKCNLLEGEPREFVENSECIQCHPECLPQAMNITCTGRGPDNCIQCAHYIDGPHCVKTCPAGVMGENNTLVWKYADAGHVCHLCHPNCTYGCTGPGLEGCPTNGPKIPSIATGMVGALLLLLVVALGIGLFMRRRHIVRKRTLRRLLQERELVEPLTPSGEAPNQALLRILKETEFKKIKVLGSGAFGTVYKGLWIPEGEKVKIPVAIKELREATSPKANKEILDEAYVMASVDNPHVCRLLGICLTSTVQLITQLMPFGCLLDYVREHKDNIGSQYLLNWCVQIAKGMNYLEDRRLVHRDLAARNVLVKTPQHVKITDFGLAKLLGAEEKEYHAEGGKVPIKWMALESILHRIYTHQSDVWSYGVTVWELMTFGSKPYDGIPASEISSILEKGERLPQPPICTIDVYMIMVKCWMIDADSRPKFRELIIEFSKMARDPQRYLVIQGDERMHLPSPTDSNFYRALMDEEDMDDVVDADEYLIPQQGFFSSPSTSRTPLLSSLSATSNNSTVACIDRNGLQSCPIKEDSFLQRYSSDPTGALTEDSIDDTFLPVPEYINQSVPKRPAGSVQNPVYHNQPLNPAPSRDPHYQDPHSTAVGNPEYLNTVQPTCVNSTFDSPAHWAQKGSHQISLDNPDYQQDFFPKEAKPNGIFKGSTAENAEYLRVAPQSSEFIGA

IC50 ([1]; ErbB2 YVMA phosphorylation) [nM] | efflux ratio at 2 h, 1 µM (MDR1 (P-gp)) | IC50 (ErbB2 WT; ErbB2 WT enzyme) [nM] | IC50 (EGFR; EGFR enzyme) [nM] | IC50 (EGFR wild type (EGFR WT); [2]) [nM] | efflux ratio at 2 h, 1 µM (BCRP) | IC50 [1, 3] [nM] | IC50 (ErbB2 WT; ErbB2 WT enzyme assay) [nM] | IC50 (EGFR; EGFR enzyme assay) [nM] | IC50 (EGFR wild type (EGFR WT); [4]) [nM] | Compound
8.7 | 1.4 | 11.8 | 1330 | 2050 | 5.9 | – | – | – | – | C=CC(=O)N1CCN(c2ccc3ncnc(Nc4ccc(Oc5cnc6c(c5)ncn6C)c(Cl)c4)c3n2)CC1(C)C [Example 249]
10.5 | 1.5 | 18.6 | 1170 | 2810 | 3 | – | – | – | – | C=CC(=O)N1CC[C@H]2CN(c3ccc4ncnc(Nc5ccc(Oc6ccn7ncnc7c6)c(Cl)c5F)c4n3)C[C@H]21 [Example 49, 1-((3aS,6aS)-5-(4-((4-([1,2,4]triazolo[1,5-a]pyridin-7-yloxy)-3-chloro-2-fluorophenyl)amino)pyrido[3,2-d]pyrimidin-6-yl)hexahydropyrrolo[3,4-b]pyrrol-1(2H)-yl)prop-2-en-1-one]
– | 1.5 | – | – | – | 5.5 | 30 | 9.2 | 2720 | ≥ 5000 | C=CC(=O)N1CCCC(c2ccc3ncnc(Nc4ccc(Oc5ccn6ncnc6c5)c(C)c4)c3n2)CC1 (stereo not drawn) [Example 401]
15 | 0.9 | 26.7 | 1820 | 2900 | 2.5 | – | – | – | – | C=CC(=O)N1C[C@@H](c2ccc3ncnc(Nc4ccc(Oc5ccc6c(c5)ncn6C)c(C)c4F)c3n2)C[C@@H]1C [Example 191, 1-((2S,4S)-4-(4-((2-fluoro-3-methyl-4-((1-methyl-1H-benzo[d]imidazol-5-yl)oxy)phenyl)amino)pyrido[3,2-d]pyrimidin-6-yl)-2-methylpyrrolidin-1-yl)prop-2-en-1-one]
31.1 | 1.2 | 225 | ≥ 10000 | ≥ 5000 | 1.9 | – | – | – | – | C=CC(=O)N1CC[C@H](c2ccc3ncnc(Nc4ccc(Oc5ccc6c(c5)ncn6C)c(C)c4F)c3n2)CC(C)(C)C1 (racemic) [Example 140, rac-(R)-1-(5-(4-((2-fluoro-3-methyl-4-((1-methyl-1H-benzo[d]imidazol-5-yl)oxy)phenyl)amino)pyrido[3,2-d]pyrimidin-6-yl)-3,3-dimethylazepan-1-yl)prop-2-en-1-one]
32 | 1.9 | 39.2 | 1380 | ≥ 5000 | 2.5 | – | – | – | – | C=CC(=O)N1CC2(C1)CN(c1ccc3ncnc(Nc4ccc(Oc5ccn6ncnc6c5)c(Cl)c4F)c3n1)C2 [Example 101, 1-(6-(4-((4-([1,2,4]triazolo[1,5-a]pyridin-7-yloxy)-3-chloro-2-fluorophenyl)amino)pyrido[3,2-d]pyrimidin-6-yl)-2,6-diazaspiro[3.3]heptan-2-yl)prop-2-en-1-one]
12.5 | 11.4 | 33.6 | 4430 | 1010 | 7.3 | – | – | – | – | C=CC(=O)N1CCC(Oc2ccc3ncnc(Nc4ccc(Oc5ccn6ncnc6c5)c(C)c4)c3n2)CC1 [Example 1, 1-(4-((4-((4-([1,2,4]triazolo[1,5-a]pyridin-7-yloxy)-3-methylphenyl)amino)pyrido[3,2-d]pyrimidin-6-yl)oxy)piperidin-1-yl)prop-2-en-1-one]
– | 1.4 | – | – | – | 2.7 | 34.7 | 76.1 | 9630 | ≥ 5000 | C=CC(=O)N1CCCC(c2ccc3ncnc(Nc4cc(C)c(Oc5ccn6ncnc6c5)cc4F)c3n2)CC1 (stereo not drawn) [Example 368]
– | 1.5 | – | – | – | 2.1 | 19.7 | 18.7 | 2860 | 961 | C=CC(=O)N1CCN(c2ccc3ncnc(Nc4cc(Cl)c(Oc5ccn6ncnc6c5)cc4F)c3n2)CC1(C)C [Example 326]
21.4 | 0.8 | 13.6 | 312 | 996 | 2.7 | – | – | – | – | C=CC(=O)N1C[C@H]2C[C@H](c3ccc4ncnc(Nc5ccc(Oc6ccn7ncnc7c6)c(Cl)c5F)c4n3)[C@@H]1C2 [Example 230, 1-((1 S,4S,6S)-6-(4-((4-([1,2,4]triazolo[1,5-a]pyridin-7-yloxy)-3-chloro-2-fluorophenyl)amino)pyrido[3,2-d]pyrimidin-6-yl)-2-azabicyclo[2.2.1]heptan-2-yl)prop-2-en-1-one]
8.9 | 0.8 | 71.5 | ≥ 10000 | ≥ 5000 | 1.9 | – | – | – | – | C=CC(=O)N1CCN(c2ccc3ncnc(Nc4ccc(Oc5cnc6c(c5)ncn6C)c(C)c4F)c3n2)CC1(C)C [Example 247, 1-(4-(4-((2-fluoro-3-methyl-4-((3-methyl-3H-imidazo[4,5-b]pyridin-6-yl)oxy)phenyl)amino)pyrido[3,2-d]pyrimidin-6-yl)-2,2-dimethylpiperazin-1-yl)prop-2-en-1-one]
– | 1 | – | – | – | 1.7 | 9.8 | 12.4 | 1100 | 1960 | C=CC(=O)N1CCN(c2ccc3ncnc(Nc4ccc(Oc5ccn6ncnc6c5)c(Cl)c4F)c3n2)C[C@@H]1C1CC1 [Example 287]
– | 1.2 | – | – | – | 3.2 | 5.9 | 10.9 | 196 | 341 | C=CC(=O)N1CC[C@@H]2C[C@H]1CN2c1ccc2ncnc(Nc3cc(C)c(Oc4ccn5ncnc5c4)cc3F)c2n1 [Example 332]
16 | 0.7 | 61.8 | ≥ 10000 | ≥ 5000 | 3.4 | – | – | – | – | C=CC(=O)N1C[C@H](c2ccc3ncnc(Nc4ccc(Oc5ccc6c(c5)ncn6C)c(C)c4F)c3n2)C[C@H]1C [Example 193, 1-((2R,4R)-4-(4-((2-fluoro-3-methyl-4-((1-methyl-1H-benzo[d]imidazol-5-yl)oxy)phenyl)amino)pyrido[3,2-d]pyrimidin-6-yl)-2-methylpyrrolidin-1-yl)prop-2-en-1-one]
– | 1.3 | – | – | – | 5 | 29.4 | 28.3 | 848 | 1950 | C=CC(=O)N1C[C@@H](c2ccc3ncnc(Nc4ccc(Oc5ccn6ncnc6c5)c(C)c4F)c3n2)C[C@@H]1C (mixture of isomers) [Example 385]
– | 1.7 | – | – | – | 4.6 | 32.4 | 18.9 | ≥ 10000 | ≥ 5000 | C=CC(=O)N1CCN(c2ccc3ncnc(Nc4ccc(Oc5ccc6c(c5)ncn6C)c(Cl)c4F)c3n2)CC1(C)C [Example 262]
– | 1 | – | – | – | 2 | 16.5 | 14.8 | ≥ 10000 | ≥ 5000 | C=CC(=O)N1CCN(c2ccc3ncnc(Nc4cc(Cl)c(Oc5ccn6ncnc6c5)cc4F)c3n2)C[C@@H]1C1CC1 [Example 286]
2.3 | 1.5 | 6 | 200 | 87.6 | 5 | – | – | – | – | C=CC(=O)N1CCN(c2ccc3ncnc(Nc4ccc(Oc5ccn6ncnc6c5)c(Cl)c4F)c3n2)CC1 [Example 30, 1-(4-(4-((4-([1,2,4]triazolo[1,5-a]pyridin-7-yloxy)-3-chloro-2-fluorophenyl)amino)pyrido[3,2-d]pyrimidin-6-yl)piperazin-1-yl)prop-2-en-1-one]

Compound | IC50 ([1]; ErbB2 YVMA phosphorylation) [nM] | efflux ratio at 2 h, 1 µM (MDR1 (P-gp)) | IC50 (ErbB2 WT; ErbB2 WT enzyme) [nM] | IC50 (EGFR; EGFR enzyme) [nM] | IC50 (EGFR wild type (EGFR WT); [2]) [nM] | efflux ratio at 2 h, 1 µM (BCRP) | IC50 [1, 3] [nM] | IC50 (ErbB2 WT; ErbB2 WT enzyme assay) [nM] | IC50 (EGFR; EGFR enzyme assay) [nM] | IC50 (EGFR wild type (EGFR WT); [4]) [nM]
C=CC(=O)N1CC2CC(C1)N2c1ccc2ncnc(Nc3ccc(Oc4ccn5ncnc5c4)c(C)c3F)c2n1 [Example 46, 1-(6-(4-((4-([1,2,4]triazolo[1,5-a]pyridin-7-yloxy)-2-fluoro-3-methylphenyl)amino)pyrido[3,2-d]pyrimidin-6-yl)-3,6-diazabicyclo[3.1.1]heptan-3-yl)prop-2-en-1-one] | 18.2 | 2.5 | 119 | 1270 | 2100 | 2.5 | – | – | – | –
C=CC(=O)N1[C@H]2CC[C@@H]1[C@@H](c1ccc3ncnc(Nc4ccc(Oc5ccn6ncnc6c5)c(C)c4F)c3n1)C2 (single isomer, unassigned) [Example 229] | 29.9 | 0.7 | 16.7 | 380 | ≥ 5000 | 3 | – | – | – | –
C=CC(=O)N1[C@@H]2CC[C@H]1CC(c1ccc3ncnc(Nc4ccc(Oc5ccc6c(c5)ncn6C)c(C)c4F)c3n1)C2 (mixture of isomers) [Example 143, rac-1-((1R,5S)-3-(4-((2-fluoro-3-methyl-4-((1-methyl-1H-benzo[d]imidazol-5-yl)oxy)phenyl)amino)pyrido[3,2-d]pyrimidin-6-yl)-8-azabicyclo[3.2.1]octan-8-yl)prop-2-en-1-one] | 20.9 | 1.7 | 32.7 | 1850 | 2940 | 3 | – | – | – | –
